One data set deals with WR mice. Description: Weight rebound (WR) model: body weight, food intake, adiposity after treatment cessation. Type of data set: in vivo, C57BL/6 J male mice. To be noted: for body weight after treatment cessation: 4 weeks post-cessation on HFD; for food intake after withdrawal: 16 days after cessation; for body weight regained over 4 weeks as a percentage of the initial weight loss: WR groups, 4 weeks after 14-day treatment; for food intake during the 14-day treatment: measured every 2 days. An excerpt:
(§1) To assess post-treatment weight rebound (WR), the mice previously treated with vehicle, LJ-4378, or TZP were maintained on HFD for an additional 4 weeks following treatment cessation. Treatment protocols for the WR groups were identical to those of the HFD groups. In total, nine experimental groups were established: NCD + CTL, NCD + LJ, NCD + TZP; HFD + CTL, HFD + LJ, HFD + TZP; and WR + CTL, WR + LJ, WR + TZP. The volume of oxygen consumed (VO2), carbon dioxide produced (VCO2), respiratory exchange ratio (RER), energy expenditure, activity, and food intake were measured with PhenoMaster (TSE Systems, Bad Homburg, Germany). Indirect calorimetry was performed under controlled conditions, with a stable ambient temperature of 24 °C and a 12 h light/12-h dark cycle. Mice fed HFD were administered vehicle, LJ-4378, or TZP for 14 days, and the last 2 days of treatment were conducted during indirect calorimetry analysis. The WR model was examined by indirect calorimetry after 2 and 4 weeks of the weight regaining phase.
Additionally, food consumption was measured every 2 days during the 14-day treatment period and for an additional 16 days post-administration.
Body composition and micro-CT analysis were performed after the treatment with vehicle, LJ-4378, or TZP for the indicated duration in HFD-fed mice and WR mice.
A nuclear magnetic resonance (NMR) technology system with EchoMRI-700 (Echo Medical Systems, […]) was used to analyze body composition.
To assess the abdominal fat volume, we employed the Quantum GX2 micro-CT imaging system (PerkinElmer, Waltham, MA, USA). Mice were anesthetized with isoflurane and positioned on the micro-CT bed for imaging of the abdominal region, defined from the proximal end of the L1 vertebra to the distal end of the L5 vertebra. Imaging was performed at 90 kV/88 µA with a field of view of 72 mm, a pixel size of 90 µm, and a 2-min acquisition time at standard resolution. Visceral, subcutaneous, and total abdominal fat volumes were quantified using AnalyzeDirect software (ver. 12.0, Overland Park, KS, USA).

The test system of the next data set is HFD-fed mice. Description: Indirect calorimetry and food intake in HFD-fed mice. Type of data set: in vivo, C57BL/6 J male mice. As to conditions: for energy expenditure adjusted for body weight and lean body mass (ANCOVA) / food intake (indirect calorimetry): HFD-fed mice; for VO2, VCO2 and energy expenditure: relative to HFD controls, last 2 days of 14-day treatment. How it is done: To evaluate the anti-obesity effect in vivo, mice fed either NCD or HFD for 10 weeks were subsequently treated for up to 4 weeks. To control for injection route-related variables, all mice received both intraperitoneal (I.P.) and subcutaneous (S.C.) injections. The administration were as follows: LJ-4378 treated mice received LJ-4378, which was synthesized in our laboratory at > 95% purity (1 mg/kg/day, I.P.) (Hou et al. [2010]; Kim et al. [2022]) along with the vehicle for TZP (40 mM Tris–HCl, pH 8, S.C.); TZP treated mice received TZP (Samms et al. [2021]; Kim et al. [2022]) (LY3298176, MedChemExpress, Monmouth Junction, NJ, USA) (10 nmol/kg/day, S.C.) along with the vehicle for LJ-4378 (0.2% DMSO, I.P.); vehicle control mice received both vehicles (0.2% DMSO, I.P. and 40 mM Tris–HCl, pH 8, S.C.)
as §1

The test system of the next data set is mice. Description: Serum markers of hepatic, renal and cardiac toxicity. It counts as in vivo. As to conditions: 1 mg/kg, 2 weeks. How it is done: Serum aspartate aminotransferase (AST), alanine aminotransferase (ALT), blood urea nitrogen (BUN), Creatinine, Creatine kinase MB (CKMB), and lactate dehydrogenase (LDH) levels were analyzed with Fujifilm Dri-Chem 3500 s (Fujifilm, Kanagawa, Japan) according to the manufacturer’s instructions. The slides GOT/AST-P III, GPT/ALT-P III, BUN-P III, CRE-P III, CKMB-P, and LDH-P III were used.
a-f. Serum levels of aspartate transaminase (AST), alanine transaminase (ALT), blood urea nitrogen (BUN), creatinine, creatine kinase MB (CKMB), and lactate dehydrogenase (LDH) in 2 weeks of LJ-4378 (1mg/kg) treatment in mice. n = 3. Statistical significance was determined using an unpaired two-tailed t-test.

The nature of data set [1]: Pharmacokinetic study in mice, single I.V. or P.O. administration. Type of data set: in vivo, male C57BL/6 J mice. As to conditions: for F (oral bioavailability): dose-normalized AUCinf. How it is done: The pharmacokinetics of LJ-4378 were evaluated in male C57BL/6 J mice following a single administration by either the oral (P.O.) or intravenous (I.V.) route. For P.O., LJ-4378 was administered at 10, 20, or 50 mg/kg in a vehicle composed of 0.5 mg/mL L-ascorbic acid, 5% DMSO, 20% PEG400, 20% Tween 80, and 55% of 0.1% copovidone. For I.V. administration, a 2 mg/kg dose was delivered via tail vein injection in a vehicle consisting of 5% DMSO, 25% PEG400, and 70% sterile water. Blood samples (200 μL) were collected at 5, 15, and 30 min and 1, 2, 4, 8, 12, and 24 h post-dose for the P.O. groups, and at 2, 5, 15, and 30 min and 1, 2, 4, 8, and 12 h post-dose for the I.V. group. Plasma was separated by centrifugation, and the concentrations of LJ-4378 were determined using a validated LC–MS/MS method. Pharmacokinetic parameters were calculated using non-compartmental analysis with Phoenix WinNonlin (v8.3), and included Cmax, Tmax, AUClast, AUCinf, t1/2, and clearance (Maclean et al. [2011]). Oral bioavailability was calculated using dose-normalized AUCinf values.

The mark [2] stands for this setting: 4 weeks after treatment cessation.

Broadly, the Cmax is the highest concentration seen after dosing. What is called Tmax is the time from dosing to the highest level. Turning to `CCCCC#Cc1nc(N)c2ncn([C@@H]3SC[C@@H](O)[C@H]3O)c2n1` [LJ-4378], in the data set on WR mice (setting [2]), the “gWAT and visceral abdominal fat, compared with the TZP group” value is “reduction”; the “whole-body fat ratio, LJ-4378 versus TZP” value is given as “significantly lower”. In the data set on WR mice, the “body weight after treatment cessation” value is given as “maintained a relatively low body weight”, the “food intake after withdrawal” value is reported as “did not alter food intake during or after treatment”, the “body weight regained over 4 weeks as a percentage of the initial weight loss” value is 88% and the “food intake during the 14-day treatment” value is on record as “did not alter food intake during or after treatment”. In the data set with HFD-fed mice, the “energy expenditure adjusted for body weight and lean body mass (ANCOVA)” value is on record as “consistently increased energy expenditure”; the “food intake (indirect calorimetry)” value is given as “did not affect the feeding behavior”; the “VO2, VCO2 and energy expenditure” value is on record as “significantly increased”. The “hepatic, renal, and cardiac injury markers (AST, ALT, BUN, creatinine, CKMB, LDH)” value in the data set with mice was “no evidence of organ toxicity”. Moreover, in data set [1] (I.V. 2.00 mg/kg), the AUC0-t is 411.45 ng·h/mL, the CL is 80.7 (mL/min)/kg, the Cmax stood at 2395.23 ng/mL and the Tmax is 1.8 min. This molecule returned a t1/2 in data set [1] (I.V. 2.00 mg/kg) of 27.6 min. In data set [1] (P.O. 10.00 mg/kg), the AUC0-t turned out to be 1273.67 ng·h/mL, the CL was 128.5 (mL/min)/kg, the Cmax is 1220.57 ng/mL and the Tmax was 4.8 min. In data set [1] (P.O. 10.00 mg/kg), the t1/2 came out at 158 min and the “F (oral bioavailability)” value is reported as 62.93%. In data set [1] (P.O. 20.00 mg/kg), the AUC0-t amounted to 3067.21 ng·h/mL, the CL is given as 103.2 (mL/min)/kg, the peak concentration (Cmax) is 2401.74 ng/mL and the Tmax is 15 min. In data set [1] (P.O. 20.00 mg/kg), the t1/2 stood at 233 min and the “F (oral bioavailability)” value was 78.42%. In data set [1] (P.O. 50.00 mg/kg), the AUC0-t stood at 8446.78 ng·h/mL, the CL is reported as 93.0 (mL/min)/kg, the peak concentration (Cmax) amounted to 5307.60 ng/mL and the Tmax stood at 30 min. Moreover, in data set [1] (P.O. 50.00 mg/kg), the t1/2 is 187 min and the “F (oral bioavailability)” value was 86.08%.

Take Tirzepatide [TZP, reference compound]: in the data set with WR mice, the “body weight after treatment cessation” value is recorded as “rapid weight regain”, the “food intake after withdrawal” value is listed as “sharp rebound in food consumption”, the “body weight regained over 4 weeks as a percentage of the initial weight loss” value stood at 127% and the “food intake during the 14-day treatment” value is “significantly suppressed food intake”. Also, in the data set with HFD-fed mice, the “energy expenditure adjusted for body weight and lean body mass (ANCOVA)” value is “not significant when LBM was used as the covariate”; the “food intake (indirect calorimetry)” value is recorded as “reduced food consumption”; the “VO2, VCO2 and energy expenditure” value is on record as “significantly increased”.

For the origin of these results see article PMC12680861, “Comparative analysis of LJ-4378 and tirzepatide in mouse models of obesity and weight regain” (Archives of Pharmacal Research, 2025).
